From patent US20240398783A1, “Compounds and Pharmaceutical Compositions Comprising Inhibitors of Amyloid Peptide Interactions with Glycosaminoglycans, Methods of Treatment and Use Thereof” (Gismo Therapeutics, Inc., priority 2021, published 2024)
Where a name gives a salt, the structure may show the parent alone.

These compounds were tested against Tau binding to heparin (HS-GAG) (Homo sapiens, UniProt P10636) (assay: Inhibition of Tau binding to immobilized heparin-BSA (ELISA)). Settings: 30 μM compound; Tau, heparin-BSA; read-out: Tau/Heparin Activity (% inhibition class).
Sequence of Tau binding to heparin (HS-GAG) (P10636 with tags, fused parts or gaps): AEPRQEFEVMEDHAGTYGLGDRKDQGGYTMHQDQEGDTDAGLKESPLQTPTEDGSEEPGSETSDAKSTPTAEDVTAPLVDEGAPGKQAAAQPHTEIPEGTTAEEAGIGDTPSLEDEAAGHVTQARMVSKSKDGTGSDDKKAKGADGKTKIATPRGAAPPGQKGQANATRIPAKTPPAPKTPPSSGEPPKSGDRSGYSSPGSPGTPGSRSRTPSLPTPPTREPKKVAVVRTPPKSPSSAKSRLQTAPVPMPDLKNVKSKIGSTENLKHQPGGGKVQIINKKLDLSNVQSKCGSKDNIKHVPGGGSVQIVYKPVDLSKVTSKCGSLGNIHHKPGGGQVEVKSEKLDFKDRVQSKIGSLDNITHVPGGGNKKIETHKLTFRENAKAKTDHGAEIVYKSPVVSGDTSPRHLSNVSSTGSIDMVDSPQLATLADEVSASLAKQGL
Set-up: species or system porcine
Procedure: Porcine intestinal mucosa heparin conjugated to Bovine Serum Albumin (Heparin-BSA) was prepared as described (Najjam, S. et al. 1997, Cytokine 12, 1013-1022). Heparin is a sulfated HS-GAG and is commonly used as a HS-GAG in biochemical and binding assays (Lindahl, U. and Kjellen, L. (2013) ibid). Heparin-BSA at 0.01 mg/ml in Phosphate Buffered Saline (PBS; pH 7.4) was added to a 96 well polystyrene ELISA plate (NUNC Cat. No. 449824; 100 μl per well) and incubated Over Night (ON) at 4 degrees Celsius. For negative controls, ELISA plates were coated with BSA instead of Heparin-BSA, using the same procedure. Following the incubation, the plate was washed consecutively, by immersion, with de-ionized water and PBS (pH 7.4). The ELISA plate was then blocked with nonfat milk (2%, 200 μl per well) for 2 hours at Room Temperature (RT) with gentle shaking. Following blocking, the plate was washed with de-ionized water then PBS (pH 7.4). GBAPs were dissolved and diluted in PBS (pH 6.5, supplemented with 0.1% BSA) at desired concentrations, added to the ELISA plates containing immobilized Heparin-BSA (100 μl per well) and incubated for 2 hours at RT with gentle shaking. Following incubation, the plate was washed with de-ionized water and three times with PBS (pH 6.5) plus Tween. Bound GBAP was detected by a monoclonal antibody specific for that GBAP, followed by incubation with secondary antibody conjugated to horseradish peroxidase (HRP). Antibody was diluted in PBS (pH 6.5 supplemented with 1% BSA). Following each incubation with antibody, the plate was washed with de-ionized water and three times with PBS (pH 6.5) wash buffer containing 0.1% Tween. The peroxidase substrate chromogen, TMB (Dako Cat. No. S1599) was added (100 μl per well) to the ELISA plate and incubated at room temperature. After 5 minutes ELISA Stop Solution (hydrochloric acid 1N, sulfuric acid 3N) was added (100 μl per well) to stop the peroxidase catalyzed colorimetric reaction. The Optical Density of the samples was measured at 450 nm using an ELISA plate reader (BioTek Synergy H1). Following color development, the % inhibition compared to control (BSA-coated plates) was determined. IC-50s were calculated using GraphPad Prism software.
The assay was performed as described in Example 43, with the following modifications. Following to coating the plates with Heparin-BSA, plates were washed as described. The compounds were dissolved in DMSO at 10 mM final concentration and further diluted prior to assay. DMSO concentration in the screening well was up to 2%. Individual compounds were co-incubated with Tau on plates containing immobilized heparin. Tau purchased from rPeptide (Cat. No. T1001) was dissolved in DMSO (Sigma Cat. No. D2650), quickly frozen and kept in aliquots at −80 degrees Celsius. Tau dissolved in PBS (pH 6.5, supplemented with BSA, 0.1%) was added to the ELISA plate (100 μl per well) and incubated for 2 hours at RT with gentle shaking. Following the incubation, the plate was washed with de-ionized water and three times with PBS (pH 6.5) plus Tween. Bound Tau was detected by anti-Tau Monoclonal Antibody D-8 (Santa Cruz Cat. No. sc-166060), followed by secondary anti-IgG antibody conjugated to HRP (R&D System, Cat. No. HAF007). Following to color development with TMB, as described in Example 43, the Optical Density of the samples was measured at 450 nm using an ELISA plate reader. Following color development, the % inhibition compared to control (no compound, DMSO control) for every compound was determined.
An example of inhibition curve is shown in FIG. 3 for Inhibitor Compounds 3 and 6. As described in Example 43, Heparin in the form of Heparin-BSA conjugate is used as a source of HS-GAG. For each compound IC-50 value in Tau—heparin-BSA binding assay is shown in […]. In some cases IC-50 was not measured and […] at 30 μM compound concentration is shown instead. […]
In the case of `CCN(CC)Cc1cccc(Nc2ccnc3cc(Cl)ccc23)c1` [Compound 42, 7-chloro-N-(3-((diethylamino)methyl)phenyl)quinolin-4-amine], the inhibition at 30 µM is reported as less than 30%.

Same assay, conditions: Tau, heparin-BSA; read-out: Tau/Heparin Activity (IC-50)
With `C/C(=N\Nc1nncc2cc(Cl)ccc12)c1ccc(-n2cc(C)nc2C)nc1` [Compound 24, (E)-6-chloro-1-(2-(1-(6-(2,4-dimethyl-1H-imidazol-1-yl)pyridin-3-yl)ethylidene)hydrazineyl)phthalazine] the IC50 was 37.9 µM. Compound `C/C(=N\Nc1ncnc2cc(F)ccc12)c1ccc(-n2cnc(C)c2C)nc1` [Compound 21, (E)-4-(2-(1-(6-(4,5-dimethyl-1H-imidazol-1-yl)pyridin-3-yl)ethylidene)hydrazineyl)-7-fluoroquinazoline] has an IC50 of 80.9 µM. `C/C(=N\Nc1ncnc2cc(Cl)ccc12)c1ccc(-n2cc(C)nc2C)nc1` [Compound 27, (E)-7-chloro-4-(2-(1-(6-(2,4-dimethyl-1H-imidazol-1-yl)pyridin-3-yl)ethylidene)hydrazineyl)quinazoline hydrochloride] was tested, and the IC50 was 2.86 µM. Work on `Clc1ccc2c(Nc3ccc(-n4ccnc4)nc3)ncnc2c1` [Compound 41, N-(6-(1H-imidazol-1-yl)pyridin-3-yl)-7-chloroquinazolin-4-amine] yielded an IC50 of 14.7 µM. `CC(=NNc1ncnc2cc(Cl)ccc12)c1ccnc(-n2cnc(C)c2C)c1` [Compound 28, 7-chloro-4-(2-(1-(2-(4,5-dimethyl-1H-imidazol-1-yl)pyridin-4-yl)ethylidene)hydrazineyl)quinazoline] was tested, and the IC50 was 61.8 µM.

Same assay, conditions: Tau/Heparin Activity (IC-50), Tau, heparin-BSA
With `CC(=NNc1ccnc2cc(Cl)ccc12)c1ccc(-n2ccnc2)cc1` [Compound 36, 4-(2-(1-(4-(1H-imidazol-1-yl)phenyl)ethylidene)hydrazineyl)-7-chloroquinoline phosphate] the IC50 was 28.5 µM. `C[N+](C)(C)Cc1ccc(/C=N\Nc2ccnc3ccc(Cl)cc23)cc1` [Compound 4, (Z)-1-(4-((2-(6-chloroquinolin-4-yl)hydrazineylidene)methyl)phenyl)—N,N,N-trimethylmethanaminium iodide] gave an IC50 of 29.2 µM. `CC(=NNc1ccnc2cc(Cl)ccc12)c1ccc(-n2cc[n+](C)c2)nc1` [Compound 23, 1-(5-(1-(2-(7-chloroquinolin-4-yl)hydrazineylidene)ethyl)pyridin-2-yl)-3-methyl-1H-imidazol-3-ium iodide] showed an IC50 of 25.7 µM. `C/C(=N\Nc1ncnc2cc(Cl)ccc12)c1cccc(N2CCN(C)CC2)c1` [Compound 30, 7-chloro-4-(2-(1-(3-(4-methylpiperazin-1-yl)phenyl)ethylidene)hydrazineyl)quinazoline] was tested, and the IC50 was 32.2 µM. For `COc1ccc2c(NN=Cc3ccc(-n4ccnc4)c(C)c3)ccnc2c1` [Compound 12, 4-(2-(4-(1H-imidazol-1-yl)-3-methylbenzylidene)hydrazineyl)-7-methoxyquinoline], the IC50 was 13.1 µM. With `C/C(=N\Nc1ncnc2cc(Cl)ccc12)c1ccc(-n2cc[n+](C)c2)nc1` [Compound 17, (E)-1-(5-(1-(2-(7-chloroquinazolin-4-yl)hydrazineylidene)ethyl)pyridin-2-yl)-3-methyl-1H-imidazol-3-ium iodide phosphoric acid salt] the IC50 was 12.2 µM. `C/C(=N\Nc1ncnc2ccccc12)c1ccc(-n2cc(C)nc2C)nc1` [Compound 19, (E)-4-(2-(1-(6-(2,4-dimethyl-1H-imidazol-1-yl)pyridin-3-yl)ethylidene)hydrazineyl)quinazoline] showed an IC50 of 46.6 µM. With `Cc1ncn(-c2ccc(/C=N\Nc3ncnc4cc(Cl)ccc34)cn2)c1C` [Compound 15, 7-chloro-4-(2-((6-(4,5-dimethyl-1H-imidazol-1-yl)pyridin-3-yl)methylene)hydrazineyl)quinazoline hydrochloride] the IC50 was 67.9 µM. `Clc1ccc2c(N/N=C/c3ccc(-n4ccnc4)cc3)ccnc2c1` [Compound 38, 4-(2-(4-(1H-imidazol-1-yl)benzylidene)hydrazineyl)-7-chloroquinoline dihydrochloride] was tested, and the IC50 was 2.94 µM. In the case of `Fc1ccc2c(N/N=C/c3ccc(-n4ccnc4)cc3)ccnc2c1` [Compound 5, (E)-4-(2-(4-(1H-imidazol-1-yl)benzylidene)hydrazinyl)-7-fluoroquinoline], the IC50 is reported as 31.4 µM. `Fc1ccc2c(N/N=C/c3ccc(CN4CCOCC4)cc3)ccnc2c1` [Compound 6, (E)-4-(4-((2-(7-fluoroquinolin-4-yl)hydrazono)methyl)benzyl)morpholine] gave an IC50 of 2.27 µM. Compound `COc1cc(Nc2cncc3cc(Cl)ccc23)cnc1-n1cnc(C)c1C` [Compound 33, 7-chloro-N-(6-(4,5-dimethyl-1H-imidazol-1-yl)-5-methoxypyridin-3-yl)isoquinolin-4-amine phosphoric acid salt] has an IC50 of 24.7 µM. `CCN1CCN(c2ccc(Nc3ccnc4cc5ccccc5cc34)cc2)CC1` [Compound 39, N-(4-(4-ethylpiperazin-1-yl)phenyl)benzo[g]quinolin-4-amine] showed an IC50 of 13.2 µM. `COc1cc2nccc(NN=Cc3ccc(-n4ccnc4)c(C)c3)c2cc1OC` [Compound 11, 4-(2-(4-(1H-imidazol-1-yl)-3-methylbenzylidene)hydrazineyl)-6,7-dimethoxyquinoline hydrochloride] was tested, and the IC50 was 3.3 µM. Work on `COc1cc(Nc2nncc3cc(Cl)ccc23)cnc1-n1cnc(C)c1C` [Compound 31, 6-chloro-N-(6-(4,5-dimethyl-1H-imidazol-1-yl)-5-methoxypyridin-3-yl)phthalazin-1-amine phosphoric acid salt] yielded an IC50 of 33.7 µM. Work on `CN1CCN(Cc2ccc(/C=N/Nc3ccnc4cc(Cl)ccc34)cc2)CC1` [Compound 7, (E)-7-chloro-4-(2-(4-((4-methylpiperazin-1-yl)methyl)benzylidene)hydrazinyl)quinolone] yielded an IC50 of 15.5 µM.

Same assay, conditions: read-out: Tau/Heparin Activity (% inhibition class)
With `Cc1cn(-c2ccc(Nc3cncc4cc(Cl)ccc34)cn2)c(C)n1` [Compound 37, 7-chloro-N-(6-(2,4-dimethyl-1H-imidazol-1-yl)pyridin-3-yl)isoquinolin-4-amine phosphoric acid salt] the inhibition at 30 µM was less than 30%. `C[n+]1ccn(-c2ccc(Nc3ncnc4cc(Cl)ccc34)cn2)c1` [Compound 43, 1-(5-((7-chloroquinazolin-4-yl)amino)pyridin-2-yl)-3-methyl-1H-imidazol-3-ium iodide phosphoric acid salt] was tested, and the inhibition at 30 µM was less than 30%. With `Cc1ncn(-c2ccc(Nc3ncnc4cc(Cl)ccc34)cn2)c1C` [Compound 25, 7-chloro-N-(6-(4,5-dimethyl-1H-imidazol-1-yl)pyridin-3-yl)quinazolin-4-amine] the inhibition at 30 µM was less than 30%. `C(=N\Nc1ccc2c3c(cccc13)CC2)/c1ccc(-n2ccnc2)cc1` [Compound 8, (E)-1-(4-((2-(1,2-dihydroacenaphthylen-5-yl)hydrazineylidene)methyl)phenyl)-1H-imidazole] gave an inhibition at 30 µM of less than 30%. `Clc1ccc2c(Nc3ccc(-n4cncn4)nc3)ccnc2c1` [Compound 44, N-(6-(1H-1,2,4-triazol-1-yl)pyridin-3-yl)-7-chloroquinolin-4-amine] was tested, and the inhibition at 30 µM was greater than 30%. Compound `Cc1ncn(-c2ncc(Nc3ncnc4cc(Cl)ccc34)cc2O)c1C` [Compound 40, 5-((7-chloroquinazolin-4-yl)amino)-2-(4,5-dimethyl-1H-imidazol-1-yl)pyridin-3-ol phosphoric acid salt] has an inhibition at 30 µM greater than 30%. Work on `Clc1ccc2c(Nc3ccc(-n4cncn4)nc3)ncnc2c1` [Compound 34, N-(6-(1H-1,2,4-triazol-1-yl)pyridin-3-yl)-7-chloroquinazolin-4-amine phosphoric acid salt] yielded an inhibition at 30 µM of less than 30%.
